Assay results from publication PMC9503518, “Antibacterial and Antifungal Properties of a Novel Antimicrobial Peptide GK-19 and Its Application in Skin and Soft Tissue Infections Induced by MRSA or Candida albicans” (Pharmaceutics, 2022).
≈ marks a conversion by molar mass, not a printed value. Structures can show the parent of a compound that is named as a salt. Where no end group is shown, it is not given here.

Assays:
MRSA = tested on: MRSA
Description: (§1) The scalded mice models combined with SSTIs by MRSA or C. albicans were constructed. Fifty normal male Kunming mice (5–6 weeks old) weighing ~25 g were anesthetized by isoflurane using a small animal anesthesia machine (R640, RWD Life Science, China). After skin preparation and disinfection, a custom-made circular iron (diameter: 8 mm) (shown in Figure S4) was applied to both sides of the spine of the mice for 10 s at 300 °C, resulting in four scalded wounds. Mice were injected subcutaneously with 5 mg/kg meloxicam (Aladdin, Shanghai, China) for four days (once per day) after scalding for pain relief. Two days after scalding, the skin tissues of the scalded areas were removed carefully, and about 30 μL of 1 × 10^7 CFU/mL of MRSA or C. albicans was applied evenly onto the surfaces of the wounds. The mice were returned to the original feeding environment after the microbial fluid was completely absorbed (1.5–2 h), with two mice per cage. Corncob granules with SPF level were used as padding.
(§2) Two days after microbe inoculating, the scalded wounds of each mouse were divided into four groups randomly. […] The mice were returned to the original feeding environment after the solutions were completely absorbed. The treatment lasted for 12–16 days. Photographs of the wound areas were taken every two days using an iPhone 11 and the wound areas were measured every two days using Image J software (152-win-java8, Bethesda, MD, USA). The average wound areas on day two were used as the reference (100% unhealed) to normalized wound areas. Skin tissues of the wound areas were removed carefully at different time points (n = 5 for each time point) and weighted in a sterile environment. For MRSA infection, 10 mg of the wound tissues was dispersed into 1000 μL of sterile saline solution and the tissue solution was ground into suspension in a tissuelyser (Tissuelyser LT, Servicebio). Then, the tissue suspension was diluted with sterile saline solution 10 times and plated on MHA with a sample volume of 50 μL. For C. albicans infection, 10 mg of the wound tissues was dispersed into 200 μL of sterile saline solution and the tissue solution was also ground into suspension in the tissuelyser. The tissue suspension was then plated on PDA directly with a sample volume of 20 μL. After culturing overnight, the colonies were counted using Image J software or human eyes. In addition, the skin tissues of the wound area were removed carefully at different time points and dispersed into a 4% paraformaldehyde solution for further use.
(§3) The hematoxylin and eosin staining in this study was carried out by Servicebio (Wuhan, China). Briefly, the obtained skin tissues were soaked in 4% paraformaldehyde solution (Beyotime, China) and fixed for more than 24 h. Then, they were dehydrated and embedded with paraffin, and tissue sections having thicknesses of 4 μm were prepared. After deparaffinization and rehydration, hematoxylin and eosin staining was performed.

C. albicans = details: topical 50 μM twice a day
Description: as §1, §2, §3

[1] = unstable in serum; cited from earlier work
Excerpt: The venom of scorpions, which has been proven to kill Gram-negative and Gram-positive bacteria, fungi, viruses and even tumor cells, are a rich source of antimicrobial peptides. Androctonus amoreuxi Antimicrobial Peptide 1 (AamAP1), identified from the venom-derived cDNA library of the North African scorpion, Androctonus amoeruxi, is a new type of host defense peptide. With broad-spectrum antimicrobial properties, it has been posited that AamAP1 kills bacteria cells through membrane disruption, which will not induce bacterial resistance. However, there are still some disadvantages in us ...

[2] = Peptide stability in water by HPLC; assay type: physicochemical; details: 10 mg/mL in water, 37 °C, 200 rpm, 0 and 48 h, HPLC 220 nm, repeated three times
Description: (§4) Antimicrobial peptides were dissolved in water or rat serum with a concentration of 10 mg/mL. The solution was incubated at 37 °C, 200 rpm for different time periods, and diluted 50 times for the HPLC analysis. In water, the incubation time was 0 h and 48 h. In rat serum, the incubation time was 0, 2, 4, 7, 12, 24 or 48 h. Each incubation condition was repeated three times. HPLC was conducted on a Waters HPLC system, which consisted of a 2996 photodiode array detector, a 2695 separation module and a temperature control column oven. Column: Sinochrom ODS-BP, 5 μm, 4.6 × 250 mm (Dalian Elite Analytical Instruments Co., Ltd., Dalian, China). Mobile phase: A: 100% ACN + 0.1% TFA; B: 100% Water + 0.1% TFA. Gradient elution: 0–20 min, 95% B–100% A; 20–25 min, 100% A. Detection wavelength: 220 nm. Flow rate: 1 mL/min. Sample volume: 50 μL (0.2 mg/mL).

[3] = Peptide stability in rat serum by HPLC; assay type: in vitro ADME; details: 10 mg/mL in rat serum, 37 °C, 200 rpm, repeated three times
Description: as §4

[4] = tested on: Candida albicans (C. albicans, ATCC90028); assay type: cell-based; details: 1 × 10^6 CFU/mL, PDB, 12 h, peptide 0-20 μM, absorbance at 600 nm, n = 5
Excerpt: (§5) Pseudomonas aeruginosa (P. aeruginosa, ATCC27853), Methicillin-Resistant Staphylococcus aureus (MRSA, 2104270609, clinically isolated strain), Escherichia coli (E. coli, ATCC25922), Klebsiella pneumoniae (K. pneumoniae, ATCC700603), Enterococcus faecalis (E. faecalis, ATCC29212), Candida krusei (C. krusei, ATCC6258), Candida albicans (C. albicans, ATCC90028), and Candida glabrata (C. glabrata, ATCCMYA-2950) were obtained from the First Affiliated Hospital of Xi’an Jiaotong University. Bacterial strains were cultured in MHA or MHB. Fungal strains were cultured in PDA or PDB.
(§6) Strains were incubated in MHB or PDB. After growing for 12–16 h at 37 °C, 200 rpm, 100 μL of 1 × 10^6 CFU/mL of the strains was seeded into 96-well plates and incubated with fresh culture medium containing various antimicrobial peptides (peptide concentration: 0, 0.5, 1.0, 2.0, 3.0, 5.0, 10, 15 or 20 μM) for 12 h. Each concentration was repeated five times. Absorbance at 600 nm was measured using the Multilabel Reader Varioskan Flash (Thermo Fisher). […] (1)

[5] = tested on: Klebsiella pneumoniae (K. pneumoniae, ATCC700603); assay type: cell-based; details: 1 × 10^6 CFU/mL, MHB, 12 h, peptide 0-20 μM, absorbance at 600 nm, n = 5
Excerpt: as §5, §6

[6] = tested on: Candida krusei (C. krusei, ATCC6258); assay type: cell-based; details: 12 h, absorbance at 600 nm, n = 5
Excerpt: as §5, §6

[7] = tested on: Pseudomonas aeruginosa (P. aeruginosa, ATCC27853); assay type: cell-based; details: 1 × 10^6 CFU/mL, MHB, 12 h, peptide 0-20 μM, absorbance at 600 nm, n = 5
Excerpt: as §5, §6

[8] = tested on: Candida glabrata (C. glabrata, ATCCMYA-2950); assay type: cell-based; details: 1 × 10^6 CFU/mL, PDB, 12 h, peptide 0-20 μM, absorbance at 600 nm, n = 5
Excerpt: as §5, §6

[9] = tested on: Methicillin-Resistant Staphylococcus aureus (MRSA, 2104270609, clinically isolated strain); assay type: cell-based; details: 1 × 10^6 CFU/mL, MHB, 12 h, peptide 0-20 μM, absorbance at 600 nm, n = 5
Excerpt: as §5, §6

[10] = tested on: Enterococcus faecalis (E. faecalis, ATCC29212); assay type: cell-based; details: 1 × 10^6 CFU/mL, MHB, 12 h, peptide 0-20 μM, absorbance at 600 nm, n = 5
Excerpt: as §5, §6

[11] = tested on: Escherichia coli (E. coli, ATCC25922); assay type: cell-based; details: 1 × 10^6 CFU/mL, MHB, 12 h, peptide 0-20 μM, absorbance at 600 nm, n = 5
Excerpt: as §5, §6

[12] = C. albicans-infected scald wounds, mice, n = 10
[13] = colony count of wound tissue on PDA, n = 5

Compound: CCC[C@@H]1C[C@@H](C(=O)N[C@@H]([C@H]2O[C@H](SC)[C@H](O)[C@@H](O)[C@H]2O)[C@H](C)Cl)N(C)C1 [CDHC, clindamycin hydrochloride]
- wound area healed on day eight (MRSA; MRSA-infected scald wounds, mice, topical 50 μM twice a day, day 2 area = 100% unhealed, n = 10): more than 45%
- unhealed wounds on day 16 (MRSA; MRSA-infected scald wounds, mice, topical 50 μM twice a day, n = 10): completely disappeared

Compound: OC(Cn1cncn1)(Cn1cncn1)c1ccc(F)cc1F [FCZ, fluconazole]
- area of the wounds healed on day 10 (C. albicans; [12]): more than 95%
- unhealed wounds on day 12 (C. albicans; [12]): completely disappeared
- C. albicans in wound tissue on day 12 (C. albicans; [13]): no C. albicans detected
- C. albicans suppressed (inhibition rate) at day eight compared with saline solution groups (C. albicans; [13]): ~ 98%

Compound: FLFKLIPKAIKKLISKFK [AamAP1-Lysine]
- predicted half-life [1]: less than two hours

Compound: CC[C@H](C)[C@H](NC(=O)[C@H](C)NC(=O)[C@H](Cc1c[nH]cn1)NC(=O)[C@@H]1CCCN1C(=O)[C@@H](NC(=O)[C@H](CC(C)C)NC(=O)[C@H](CO)NC(=O)[C@H](Cc1ccccc1)NC(=O)[C@H](CC(C)C)NC(=O)[C@@H](N)Cc1ccccc1)[C@@H](C)CC)C(=O)NCC(=O)NCC(=O)N[C@@H](CC(C)C)C(=O)N[C@H](C(=O)N[C@@H](CO)C(=O)N[C@@H](C)C(=O)N[C@@H](Cc1ccccc1)C(=O)N[C@@H](CCCCN)C(=O)O)[C@@H](C)CC [AamAP1, Androctonus amoreuxi Antimicrobial Peptide 1, reference compound]
- time for which structural stability was retained in water [2]: ≥ 48 h
- predicted half-life [1]: less than two hours
- metabolised at 7 h, 10 mg/mL ([3]; 7 h, HPLC peak area 220 nm, read-out: peptide degraded after seven hours of co-incubation with rat serum): > 65%
- change of HPLC peak after incubation in rat serum for two hours ([3]; two hours, HPLC 220 nm): position of its chromatographic peak moved backward
- MRSA suppressed (inhibition rate) at day eight compared with saline solution groups (MRSA; mouse, in vivo, 2 h, 50 μM): more than 90%
- Minimum inhibitory concentration (MIC), C. albicans [4]: > 20 µM
- Minimum inhibitory concentration (MIC), K. pneumoniae [5]: > 20 µM
- Minimum inhibitory concentration (MIC), C. krusei ([6]; 1 × 10^6 CFU/mL, PDB, peptide 0-20 μM): 20 µM (≈ 38.6 µg/mL)
- inhibition of C. krusei ([6]; within 0-20 μM): 90%
- Minimum inhibitory concentration (MIC), P. aeruginosa [7]: > 20 µM
- Minimum inhibitory concentration (MIC), C. glabrata [8]: > 20 µM
- Minimum inhibitory concentration (MIC), MRSA [9]: > 20 µM
- Minimum inhibitory concentration (MIC), E. faecalis [10]: > 20 µM
- Minimum inhibitory concentration (MIC), E. coli [11]: > 20 µM
